Measured values as given in ChEMBL document CHEMBL2062379, “Cleavage mechanism and anti-tumor activity of 3,6-epidioxy-1,10-bisaboladiene isolated from edible wild plants” (Bioorg Med Chem, 2012).
The source made the active and inactive calls. The rule behind the calls is not given here.

Assays:
HL-60 [1] = assay: Cytotoxicity against human HL60 cells assessed as cell viability at 2 uM by MTT assay in presence of 20 uM FeSO4; format: functional
HL-60 [2] = assay: Cytotoxicity against human HL60 cells after 48 hrs by MTT assay in presence of DFOM; format: functional, cell-based; settings: HL-60, 48 h
A549 = assay: Growth inhibition of human A549 cells; format: functional
[3] = Prodrug conversion in buffer at pH 8 assessed as (1)- 7-(1,5-Dimethyl-hex-4-enyl)-4-methyl-3,8-dioxa-tricyclo[5.1.0.0*2,4*]octane formation after 24 hrs by HPLC analysis in presence of 25 mM FeSO4; format: physicochemical; settings: pH 8, 24 h
DMS-273 = assay: Growth inhibition of human DMS273 cells; format: functional
[4] = Growth inhibition of human RXF631L cells; format: functional; settings: RXF 631
SF-539 = assay: Growth inhibition of human SF539 cells; format: functional
HL-60 [5] = assay: Induction of apoptosis in human HL60 cells assessed as DNA fragmentation after 24 hrs by Hoechst staining-based microscopic analysis preincubated with 10 uM ERK inhibitor PD98059; format: functional, cell-based
HL-60 [6] = assay: Cytotoxicity against human HL60 cells after 48 hrs by MTT assay; format: functional, cell-based; settings: HL-60, 48 h
MKN-45 = assay: Growth inhibition of human MKN45 cells; format: functional
HL-60 [7] = assay: Induction of apoptosis in human HL60 cells assessed as caspase 3/7 activation at 20 uM after 3 hrs by spectrophotometric analysis; format: functional, cell-based
MCF7 = assay: Growth inhibition of human MCF7 cells; format: functional
HL-60 [8] = assay: Induction of apoptosis in human HL60 cells assessed as condensed and fragmented nuclie at 10.6 uM after 18 hrs by Hoechst staining-based microscopic analysis relative to control; format: functional, cell-based
MKN-28 = assay: Growth inhibition of human MKN28 cells; format: functional
OVCAR-8 = assay: Growth inhibition of human OVCAR8 cells; format: functional
HL-60 [9] = assay: Cytotoxicity against human HL60 cells assessed as cell viability at 2 uM by MTT assay in presence of 20 uM Fe2(SO4)3; format: functional
HCT-116 = assay: Growth inhibition of human HCT116 cells; format: functional
St-4 = assay: Growth inhibition of human St-4 cells; format: functional
ACHN = assay: Growth inhibition of human ACHN cells; format: functional
LNCaP = assay: Cytotoxicity against human LNCAP cells after 4 days by MTT assay; format: functional, cell-based; settings: 96 h
HL-60 [10] = assay: Induction of apoptosis in human HL60 cells assessed as caspase 9 activation at 20 uM after 3 hrs by spectrophotometric analysis; format: functional, cell-based
SK-OV-3 = assay: Growth inhibition of human SKOV3 cells; format: functional
[11] = Growth inhibition of human MKN1 cells; format: functional; settings: MKN-1

## CC(C)=CCCC(C)C12C=CC(C)(CC1)OO2 (stereo not drawn)
HL-60 [1]
  Activity: 33.2%
HL-60 [2]
  IC50: 35.5 µM
A549
  GI50: 1.55 µM
[3]
  Drug metabolism: Active
DMS-273
  GI50: 1.15 µM
[4]
  GI50: 2.51 µM
SF-539
  GI50: 2.57 µM
HL-60 [5]
  Activity: Active
HL-60 [6]
  IC50: 3.4 µM
MKN-45
  GI50: 6.31 µM
HL-60 [7]
  Activity: Active
MCF7
  GI50: 2.09 µM
HL-60 [8]
  Activity: Active
MKN-28
  GI50: 8.32 µM
OVCAR-8
  GI50: 12 µM
HL-60 [9]
  Activity: 34.9%
HCT-116
  GI50: 3.72 µM
St-4
  GI50: 5.37 µM
ACHN
  GI50: 1.23 µM
LNCaP
  IC50: 23.4 µM
HL-60 [10]
  Activity: Active
SK-OV-3
  GI50: 7.94 µM
[11]
  GI50: 1.74 µM
